Tested on: Chilo suppressalis
Test: Rice field trials, Chilo suppressalis insect damage / white heads (Example 1, Trials 3-4, Thailand)
Format: in vivo
Details: for percent reduction in insect damage relative to untreated control: UTC given as 0
Method: All applications were made with an EC formulation containing 650 g/L of pelargonic acid (e.g., 685 g/L of 95% purity pelargonic acid), an anionic emulsifier and a branched fatty acid ester solvent. […] Trials 1 4 assessing the use of pelargonic acid for controlling Chilo suppressalis in rice were conducted in Spain and Thailand. Application A was made to the crops at the beginning of infestations; for these trials, Stage BBCH 59; Application B was made 14 days after Application A. Trial 3 was conducted in Thailand using a water volume of 500 L/ha of water per application unless otherwise indicated. Insect Damage ([…] %), Insect Damage (Number) and Phytotoxicity were assessed at various treatment evaluation intervals. Population levels were recorded by counting number of rice plants per hill, number of white head (damage from rice stem borer) followed by calculation of % insect damage. Trial 4 was conducted in Thailand using a water volume of 500 L/ha of water per application unless otherwise indicated. Insect Damage ([…] %), Insect Damage (Number) and Phytotoxicity were assessed at various treatment evaluation intervals. Population levels were recorded by counting number of rice plants per hill, number of white head (damage from rice stem borer) followed by calculation of % insect damage.

[1] = Trial 3, 21 DAB, water volume 500 L/ha, rate in treatment name, Prevathon 0.5 L/ha, listed as PA 2600 g/ha
[2] = Trial 4, 0 DAA, water volume 200 L/ha
[3] = Trial 4, 0 DAB, water volume 200 L/ha
[4] = Trial 4, 0 DAB, water volume 500 L/ha, rate in treatment name, Prevathon 0.5 L/ha, listed as PA 585 g/ha
[5] = Trial 4, 0 DAB, water volume 500 L/ha, rate in treatment name, Prevathon 0.5 L/ha, listed as PA 975 g/ha
[6] = Trial 4, 0 DAB, water volume 500 L/ha, rate in treatment name, Prevathon 0.5 L/ha, listed as PA 1300 g/ha
[7] = Trial 4, 0 DAB, water volume 500 L/ha, rate in treatment name, Prevathon 0.5 L/ha, listed as PA 2600 g/ha
[8] = Trial 4, 7 DAA, water volume 200 L/ha
[9] = Trial 4, 7 DAA, water volume 500 L/ha, rate in treatment name, Prevathon 0.5 L/ha, listed as PA 585 g/ha
[10] = Trial 4, 7 DAA, water volume 500 L/ha, rate in treatment name, Prevathon 0.5 L/ha, listed as PA 975 g/ha
[11] = Trial 4, 7 DAA, water volume 500 L/ha, rate in treatment name, Prevathon 0.5 L/ha, listed as PA 1300 g/ha
[12] = Trial 4, 7 DAA, water volume 500 L/ha, rate in treatment name, Prevathon 0.5 L/ha, listed as PA 2600 g/ha
[13] = Trial 4, 7 DAB, water volume 200 L/ha
[14] = Trial 4, 7 DAB, water volume 500 L/ha, rate in treatment name, Prevathon 0.5 L/ha, listed as PA 585 g/ha
[15] = Trial 4, 7 DAB, water volume 500 L/ha, rate in treatment name, Prevathon 0.5 L/ha, listed as PA 975 g/ha
[16] = Trial 4, 7 DAB, water volume 500 L/ha, rate in treatment name, Prevathon 0.5 L/ha, listed as PA 1300 g/ha
[17] = Trial 4, 7 DAB, water volume 500 L/ha, rate in treatment name, Prevathon 0.5 L/ha, listed as PA 2600 g/ha
[18] = Trial 4, 10 DAA, water volume 200 L/ha
[19] = Trial 4, 10 DAA, water volume 500 L/ha, rate in treatment name, Prevathon 0.5 L/ha, listed as PA 585 g/ha
[20] = Trial 4, 10 DAA, water volume 500 L/ha, rate in treatment name, Prevathon 0.5 L/ha, listed as PA 975 g/ha
[21] = Trial 4, 10 DAA, water volume 500 L/ha, rate in treatment name, Prevathon 0.5 L/ha, listed as PA 1300 g/ha
[22] = Trial 4, 10 DAA, water volume 500 L/ha, rate in treatment name, Prevathon 0.5 L/ha, listed as PA 2600 g/ha
[23] = Trial 4, 10 DAB, water volume 200 L/ha
[24] = Trial 4, 10 DAB, water volume 500 L/ha, rate in treatment name, Prevathon 0.5 L/ha, listed as PA 585 g/ha
[25] = Trial 4, 10 DAB, water volume 500 L/ha, rate in treatment name, Prevathon 0.5 L/ha, listed as PA 975 g/ha
[26] = Trial 4, 10 DAB, water volume 500 L/ha, rate in treatment name, Prevathon 0.5 L/ha, listed as PA 1300 g/ha
[27] = Trial 4, 10 DAB, water volume 500 L/ha, rate in treatment name, Prevathon 0.5 L/ha, listed as PA 2600 g/ha
[28] = Trial 4, 14 DAB, water volume 200 L/ha
[29] = Trial 4, 14 DAB, water volume 500 L/ha, rate in treatment name, Prevathon 0.5 L/ha, listed as PA 585 g/ha
[30] = Trial 4, 14 DAB, water volume 500 L/ha, rate in treatment name, Prevathon 0.5 L/ha, listed as PA 975 g/ha
[31] = Trial 4, 14 DAB, water volume 500 L/ha, rate in treatment name, Prevathon 0.5 L/ha, listed as PA 1300 g/ha
[32] = Trial 4, 14 DAB, water volume 500 L/ha, rate in treatment name, Prevathon 0.5 L/ha, listed as PA 2600 g/ha
[33] = Trial 4, 21 DAB, water volume 200 L/ha
[34] = Trial 4, 21 DAB, water volume 500 L/ha, rate in treatment name, Prevathon 0.5 L/ha, listed as PA 585 g/ha
[35] = Trial 4, 21 DAB, water volume 500 L/ha, rate in treatment name, Prevathon 0.5 L/ha, listed as PA 975 g/ha
[36] = Trial 4, 21 DAB, water volume 500 L/ha, rate in treatment name, Prevathon 0.5 L/ha, listed as PA 1300 g/ha
[37] = Trial 4, 21 DAB, water volume 500 L/ha, rate in treatment name, Prevathon 0.5 L/ha, listed as PA 2600 g/ha

## CCCCCCCCC(=O)O [PA 650 g/ha, pelargonic acid]
[1]
  DAMINS % (insect damage, % white heads): 0.19%
  DAMINS (number): mean number of insect damage (white head symptoms): 0.75
[2]
  DAMINS (number): mean number of insect damage (white head symptoms): 5.5
  percent reduction in insect damage relative to untreated control: 0%
Trial 4, 0 DAA, water volume 500 L/ha, rate in treatment name, Prevathon 0.5 L/ha
  percent reduction in insect damage relative to untreated control: 0%
Trial 4, 0 DAA, water volume 500 L/ha, rate in treatment name, Prevathon 0.5 L/ha, listed as PA 585 g/ha
  DAMINS (number): mean number of insect damage (white head symptoms): 4.57
Trial 4, 0 DAA, water volume 500 L/ha, rate in treatment name, Prevathon 0.5 L/ha, listed as PA 975 g/ha
  DAMINS (number): mean number of insect damage (white head symptoms): 5.19
Trial 4, 0 DAA, water volume 500 L/ha, rate in treatment name, Prevathon 0.5 L/ha, listed as PA 1300 g/ha
  DAMINS (number): mean number of insect damage (white head symptoms): 5.23
Trial 4, 0 DAA, water volume 500 L/ha, rate in treatment name, Prevathon 0.5 L/ha, listed as PA 2600 g/ha
  DAMINS (number): mean number of insect damage (white head symptoms): 5.07
[3]
  DAMINS (number): mean number of insect damage (white head symptoms): 1.36
  percent reduction in insect damage relative to untreated control: 71.53%
[4]
  percent reduction in insect damage relative to untreated control: 22.87%
  DAMINS (number): mean number of insect damage (white head symptoms): 3.57
[5]
  percent reduction in insect damage relative to untreated control: 28.25%
  DAMINS (number): mean number of insect damage (white head symptoms): 3.34
[6]
  percent reduction in insect damage relative to untreated control: 38.54%
  DAMINS (number): mean number of insect damage (white head symptoms): 2.88
[7]
  percent reduction in insect damage relative to untreated control: 67.46%
  DAMINS (number): mean number of insect damage (white head symptoms): 1.49
[8]
  DAMINS (number): mean number of insect damage (white head symptoms): 2.94
  percent reduction in insect damage relative to untreated control: 62.66%
[9]
  percent reduction in insect damage relative to untreated control: 15.96%
  DAMINS (number): mean number of insect damage (white head symptoms): 6.67
[10]
  percent reduction in insect damage relative to untreated control: 22.58%
  DAMINS (number): mean number of insect damage (white head symptoms): 6.09
[11]
  percent reduction in insect damage relative to untreated control: 44.41%
  DAMINS (number): mean number of insect damage (white head symptoms): 4.38
[12]
  percent reduction in insect damage relative to untreated control: 51.10%
  DAMINS (number): mean number of insect damage (white head symptoms): 3.87
[13]
  DAMINS (number): mean number of insect damage (white head symptoms): 0.76
  percent reduction in insect damage relative to untreated control: 80.70%
[14]
  percent reduction in insect damage relative to untreated control: 27.16%
  DAMINS (number): mean number of insect damage (white head symptoms): 2.86
[15]
  percent reduction in insect damage relative to untreated control: 36.66%
  DAMINS (number): mean number of insect damage (white head symptoms): 2.52
[16]
  percent reduction in insect damage relative to untreated control: 49.64%
  DAMINS (number): mean number of insect damage (white head symptoms): 1.93
[17]
  percent reduction in insect damage relative to untreated control: 66.66%
  DAMINS (number): mean number of insect damage (white head symptoms): 1.32
[18]
  DAMINS (number): mean number of insect damage (white head symptoms): 1.76
  percent reduction in insect damage relative to untreated control: 80.59%
[19]
  percent reduction in insect damage relative to untreated control: 40.99%
  DAMINS (number): mean number of insect damage (white head symptoms): 5.33
[20]
  percent reduction in insect damage relative to untreated control: 44.26%
  DAMINS (number): mean number of insect damage (white head symptoms): 4.99
[21]
  percent reduction in insect damage relative to untreated control: 56.19%
  DAMINS (number): mean number of insect damage (white head symptoms): 3.94
[22]
  percent reduction in insect damage relative to untreated control: 72.62%
  DAMINS (number): mean number of insect damage (white head symptoms): 2.48
[23]
  DAMINS (number): mean number of insect damage (white head symptoms): 1.06
  percent reduction in insect damage relative to untreated control: 77.49%
[24]
  percent reduction in insect damage relative to untreated control: 22.53%
  DAMINS (number): mean number of insect damage (white head symptoms): 3.71
[25]
  percent reduction in insect damage relative to untreated control: 51.13%
  DAMINS (number): mean number of insect damage (white head symptoms): 2.35
[26]
  percent reduction in insect damage relative to untreated control: 61.44%
  DAMINS (number): mean number of insect damage (white head symptoms): 1.86
[27]
  percent reduction in insect damage relative to untreated control: 74.82%
  DAMINS (number): mean number of insect damage (white head symptoms): 1.19
[28]
  DAMINS (number): mean number of insect damage (white head symptoms): 0.9
  percent reduction in insect damage relative to untreated control: 80.46%
[29]
  percent reduction in insect damage relative to untreated control: 19.69%
  DAMINS (number): mean number of insect damage (white head symptoms): 3.78
[30]
  percent reduction in insect damage relative to untreated control: 40.42%
  DAMINS (number): mean number of insect damage (white head symptoms): 2.74
[31]
  percent reduction in insect damage relative to untreated control: 46.02%
  DAMINS (number): mean number of insect damage (white head symptoms): 2.54
[32]
  percent reduction in insect damage relative to untreated control: 76.77%
  DAMINS (number): mean number of insect damage (white head symptoms): 1.1
[33]
  DAMINS (number): mean number of insect damage (white head symptoms): 1.24
  percent reduction in insect damage relative to untreated control: 74.20%
[34]
  percent reduction in insect damage relative to untreated control: 29.88%
  DAMINS (number): mean number of insect damage (white head symptoms): 3.3
[35]
  percent reduction in insect damage relative to untreated control: 37.44%
  DAMINS (number): mean number of insect damage (white head symptoms): 2.96
[36]
  percent reduction in insect damage relative to untreated control: 52.85%
  DAMINS (number): mean number of insect damage (white head symptoms): 2.26
[37]
  percent reduction in insect damage relative to untreated control: 71.12%
  DAMINS (number): mean number of insect damage (white head symptoms): 1.38
